Laboratory results from patent publication US20230320956A1, “DIARYLALKANE COMPOUNDS AND COMPOSITIONS FOR USE WITH SKIN AGING AND METHODS OF PRODUCTION THEREOF” (Unigen, Inc., priority 2022, published 2023).

Tested on: keratinocytes (Hacat cell line)
Test: Global gene expression (RNA-seq) in treated keratinocytes
Assay type: cell-based, human
Conditions: for Fold change (gene expression): 40 μM vs untreated; for Fold Enrichment / Number of Genes Differentially Expressed: 40 μM
Procedure: To determine specific expression changes dimethoxytolyl propylresorcinol exerted on human keratinocyte aging genes, keratinocytes (Hacat cell line) were treated dimethoxytolyl propylresorcinol at 40 μM and gene expression was analyzed by RNA-seq. Differential gene expression was compared to untreated keratinocytes and cells treated with 40 μM Retinol A to find genes involved in aging. […] Retinol was chosen as a positive control because retinoids have been described as having effective anti-aging and anti-wrinkle effects (Zasada M, 2019). We directly compared the effects of Retinol on keratinocytes with the same concentration of dimethoxytolyl propylresorcinol.

[1] = Gene Cluster Activation of MAPK activity
[2] = Gene Cluster Calcium ion binding
[3] = Gene Cluster Cell-cell signaling
[4] = Gene Cluster Cellular response to lipopolysaccharide
[5] = Gene Cluster Cellular response to retinoic acid
[6] = Gene Cluster Epidermis development
[7] = Gene Cluster Epithelial cell differentiation
[8] = Gene Cluster Extracellular exosome
[9] = Gene Cluster Extracellular matrix organization
[10] = Gene Cluster Extracellular region
[11] = Gene Cluster Extracellular space
[12] = Gene Cluster Growth factor activity
[13] = Gene Cluster Inflammatory response
[14] = Gene Cluster Intermediate filament cytoskeleton organization
[15] = Gene Cluster Negative regulation of ERK1 and ERK2 cascade
[16] = Gene Cluster Negative regulation of cell proliferation
[17] = Gene Cluster Negative regulation of endopeptidase activity
[18] = Gene Cluster Neutrophil chemotaxis
[19] = Gene Cluster O-glycan processing
[20] = Gene Cluster Osteoblast differentiation
[21] = Gene Cluster Positive regulation of angiogenesis
[22] = Gene Cluster Positive regulation of cell migration
[23] = Gene Cluster Positive regulation of cell proliferation
[24] = Gene Cluster Positive regulation of gene expression
[25] = Gene Cluster Positive regulation of smooth muscle cell proliferation
[26] = Gene Cluster Proteinaceous extracellular matrix
[27] = Gene Cluster Transforming growth factor beta receptor binding

CC1=C(/C=C/C(C)=C/C=C/C(C)=C/CO)C(C)(C)CCC1 [Retinol, reference compound]
Fold change (gene expression) (AHR - Aryl hydrocarbon receptor, Oxidative stress): No effect
Fold change (gene expression) (ANGPTL4 - Angiopoietin-like 4, Negative regulation of growth/Angiogenesis): 2.77 fold
Fold change (gene expression) (ANOS1 - Anosmin 1, ECM/Nerve adhesion): 0.55 fold
Fold change (gene expression) (BMP4 - Bone morphogenetic protein 4, Growth): 0.51 fold
Fold change (gene expression) (C3orf33 - Chromosome 3 open reading frame 33, Negative regulation of growth): 2.24 fold
Fold change (gene expression) (CD1D - CD1d molecule, ECM): 0.32 fold
Fold change (gene expression) (CDK5R1 - Cyclin-dependent kinase 5 activator 1, Growth/Skin barrier): No effect
Fold change (gene expression) (CEACAM1 - CEA cell adhesion molecule 1, Cell adhesion): 3.00 fold
Fold change (gene expression) (COL1A1 - Collagen type 1, ECM): No effect
Fold change (gene expression) (COL5A1 - Collagen type V alpha 1 chain, ECM): 0.27 fold
Fold change (gene expression) (CRISPLD2 - Cysteine-rich secretory protein LCCL domain-containing 2, ECM): 1.98 fold
Fold change (gene expression) (CXCL3 - C-X-C motif chemokine ligand 3, Immune signaling): 2.60 fold
Fold change (gene expression) (CYP1A1 - Cytochrome P450 family 1 subfamily A member 1, Drug metabolism): 2.30 fold
Fold change (gene expression) (ECM1 - Extracellular matrix protein 1, ECM): No effect
Fold change (gene expression) (EPHA4 - Ephrin type-A receptor 4, Cell adhesion, cell communication): 0.55 fold
Fold change (gene expression) (EREG - Epiregulin, Growth): No effect
Fold change (gene expression) (FABP5 - Fatty acid binding protein 5, Skin barrier): No effect
Fold change (gene expression) (FGF1 - Fibroblast growth factor 1, Growth): 0.45 fold
Fold change (gene expression) (FGF11 - Fibroblast growth factor 11, Growth): 0.50 fold
Fold change (gene expression) (FLRT2 - Fibronectin leucine-rich transmembrane protein 2, ECM): 0.58 fold
Fold Enrichment [1]: 3.15 fold
Number of Genes Differentially Expressed [1]: 7
Fold Enrichment (Gene Cluster Angiogenesis): 2.37 fold
Number of Genes Differentially Expressed (Gene Cluster Angiogenesis): 11
Fold Enrichment [2]: 2.04 fold
Number of Genes Differentially Expressed [2]: 30
Fold Enrichment (Gene Cluster Cell development): 4.81 fold
Number of Genes Differentially Expressed (Gene Cluster Cell development): 4
Fold Enrichment (Gene Cluster Cell surface): 1.84 fold
Number of Genes Differentially Expressed (Gene Cluster Cell surface): 20
Fold Enrichment [3]: 2.46 fold
Number of Genes Differentially Expressed [3]: 13
Fold Enrichment [4]: 4.26 fold
Number of Genes Differentially Expressed [4]: 10
Fold Enrichment [5]: 4.12 fold
Number of Genes Differentially Expressed [5]: 6
Fold Enrichment [6]: 4.53 fold
Number of Genes Differentially Expressed [6]: 8
Fold Enrichment [7]: 4.81 fold
Number of Genes Differentially Expressed [7]: 7
Fold Enrichment [8]: 1.47 fold
Number of Genes Differentially Expressed [8]: 83
Fold Enrichment [9]: 3.19 fold
Number of Genes Differentially Expressed [9]: 13
Fold Enrichment [10]: 1.73 fold
Number of Genes Differentially Expressed [10]: 56
Fold Enrichment [11]: 2.48 fold
Number of Genes Differentially Expressed [11]: 67
Fold Enrichment [12]: 3.00 fold
Number of Genes Differentially Expressed [12]: 10
Fold Enrichment (Gene Cluster Growth): 6.87 fold
Number of Genes Differentially Expressed (Gene Cluster Growth): 4
Fold Enrichment (Gene Cluster Heparin binding): 4.86 fold
Number of Genes Differentially Expressed (Gene Cluster Heparin binding): 16
Fold Enrichment [13]: 2.54 fold
Number of Genes Differentially Expressed [13]: 20
Fold Enrichment [14]: 9.62 fold
Number of Genes Differentially Expressed [14]: 3
Fold Enrichment [15]: 5.81 fold
Number of Genes Differentially Expressed [15]: 7
Fold Enrichment [16]: 2.43 fold
Number of Genes Differentially Expressed [16]: 20
Fold Enrichment [17]: 2.78 fold
Number of Genes Differentially Expressed [17]: 7
Fold Enrichment [18]: 3.65 fold
Number of Genes Differentially Expressed [18]: 5
Fold Enrichment [19]: 4.00 fold
Number of Genes Differentially Expressed [19]: 5
Fold Enrichment [20]: 3.24 fold
Number of Genes Differentially Expressed [20]: 7
Fold Enrichment [21]: 3.35 fold
Number of Genes Differentially Expressed [21]: 8
Fold Enrichment [22]: 3.40 fold
Number of Genes Differentially Expressed [22]: 13
Fold Enrichment [23]: 1.86 fold
Number of Genes Differentially Expressed [23]: 18
Fold Enrichment [24]: 2.20 fold
Number of Genes Differentially Expressed [24]: 12
Fold Enrichment [25]: 4.81 fold
Number of Genes Differentially Expressed [25]: 6
Fold Enrichment [26]: 4.27 fold
Number of Genes Differentially Expressed [26]: 23
Fold Enrichment (Gene Cluster Response to drug): 2.37 fold
Number of Genes Differentially Expressed (Gene Cluster Response to drug): 15
Fold Enrichment [27]: 5.79 fold
Number of Genes Differentially Expressed [27]: 5
Fold change (gene expression) (HAS2 - hyaluronan synthase 2, ECM): No effect
Fold change (gene expression) (HAS3 - hyaluronan synthase 3, ECM): No effect
Fold change (gene expression) (HBEGF - Heparin-binding EGF-like growth factor, Growth): No effect
Fold change (gene expression) (HIF1A - Hypoxia-inducible factor 1 subunit alpha, Oxidative stress): No effect
Fold change (gene expression) (HMOX1 - Heme oxygenase 1, Oxidative stress): No effect
Fold change (gene expression) (HS3ST1 - Heparan sulfate-glucosamine 3-sulfotransferase 1, ECM): 1.48 fold
Fold change (gene expression) (IL1A - Interleukin 1 alpha, Cytokine signaling): No effect
Fold change (gene expression) (IL1RL1 - Interleukin 1 receptor-like 1, Immune signaling): 3.13 fold
Fold change (gene expression) (ITGA6 - Integrin subunit alpha 6, Cell adhesion): 0.59 fold
Fold change (gene expression) (ITGBL1 - Integrin subunit beta-like 1, Cell adhesion): No effect
Fold change (gene expression) (KIF13A - Kinesin family member 13A, Cytoskeleton/secretion): 0.68 fold
Fold change (gene expression) (LAMA3 - Laminin subunit alpha 3, ECM): No effect
Fold change (gene expression) (LAMC2 - Laminin subunit gamma 2, ECM): 0.71 fold
Fold change (gene expression) (NGF - Nerve growth factor, Growth): No effect
Fold change (gene expression) (NID2 - Nidogen 2 precursor, ECM): 0.79 fold
Fold change (gene expression) (OCLN - Occludin, Skin barrier): No effect
Fold change (gene expression) (OLFM4 - Olfactomedin 4, ECM): 0.28 fold
Fold change (gene expression) (PARP15 - Poly (ADP-Ribose) polymerase family member 15, DNA damage repair/transcription regulation): No effect
Fold change (gene expression) (PI3 - Peptidase inhibitor 3, elastase inhibitor, Elastin genes): No effect
Fold change (gene expression) (PSAPL1 - Prosaposin-like 1, ECM): 0.32 fold
Fold change (gene expression) (PSG5 - Pregnancy specific beta-1-glycoprotein 5, ECM): 0.37 fold
Fold change (gene expression) (PTPRR - Protein tyrosine phosphatase receptor type R, Negative regulation of growth): 2.31 fold
Fold change (gene expression) (RAPGEF3 - Rap guanine nucleotide exchange factor 3, Plasma membrane fusion/cytoskeleton): 1.81 fold
Fold change (gene expression) (SELE - E-Selectin, Cell adhesion): No effect
Fold change (gene expression) (SEMA3D - Semaphorin 3D, ECM/Nerve growth): 0.50 fold
Fold change (gene expression) (SERPINB2 - Serpin family B member 2, Skin barrier): 0.70 fold
Fold change (gene expression) (SERPINB4 - Serpin family B member 4, Skin barrier): No effect
Fold change (gene expression) (SIRT1 - Sirtuin 1, Transcription regulation): No effect
Fold change (gene expression) (SIRT7 - Sirtuin 7, Transcription regulation): No effect
Fold change (gene expression) (SOD2 - Superoxide dismutase 2, Oxidative stress): No effect
Fold change (gene expression) (TFP12 - Tissue factor pathway inhibitor 2, ECM): 2.46 fold
Fold change (gene expression) (TGFB1 - Transforming growth factor beta 1, TGF-β signaling): No effect
Fold change (gene expression) (TLR4 - Toll-like receptor 4, Immune signaling): 2.67 fold
Fold change (gene expression) (TNC - Tenascin C, ECM/Nerve growth): 0.14 fold
Fold change (gene expression) (TP73 - Tumor protein P73, Growth): 0.38 fold
Fold change (gene expression) (TXNRD1 - Thioredoxin reductase 1, Oxidative stress): 1.45 fold
Fold change (gene expression) (UGCG - UDP-glucose ceramide glucosyltransferase, Lipid metabolism and transport): 1.24 fold
Fold change (gene expression) (VIT - Vitrin, ECM): 0.14 fold
